These molecules were tested on apyrase (assay: Screen for apyrase inhibitors (Method 1, in vitro phosphate-release absorbance assay)). Details: inhibitor conc at 1 mM stock, 1 hr room temperature, absorbance 630 nm; rounded average of two assay results.
Type: biochemical
Method in brief: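 Phosphate-release colorimetric assay (Windsor method) in 60 mM Hepes, 3 mM MgCl2, 3 mM CaCl2, 3 mM ATP, pH 6.5, with compound or DMSO control added. Released phosphate developed with ammonium molybdate and ascorbic acid/TCA, then stopped with citrate/acetic acid.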

% Inhibition of Apyrase	SMILES
70%	O=C(CNC(=O)c1ccc(Br)cc1)Nc1cccc(S(=O)(=O)Nc2ccc(Br)cc2)c1 [I-195, 4-bromo-N-(2-((3-(N-(4-bromophenyl)sulfamoyl)phenyl)amino)-2-oxoethyl)benzamide]
15%	O=C(Nc1cccc(S(=O)(=O)Nc2ccc(Cl)cc2)c1)c1ccc(Cl)nc1 [I-764, 6-chloro-N-(3-(N-(4-chlorophenyl)sulfamoyl)phenyl)nicotinamide]
75%	O=C(Nc1cccc(S(=O)(=O)N2CCCC2)c1)c1ccccc1NS(=O)(=O)c1cccc(C(F)(F)F)c1 [I-180, N-(3-(pyrrolidin-1-ylsulfonyl)phenyl)-2-((3-(trifluoromethyl)phenyl)sulfonamido) benzamide]
54%	COc1ccc(NC(=O)c2cccc(NS(=O)(=O)c3ccc(Br)cc3)c2)cn1 [I-645, 3-((4-bromophenyl)sulfonamido)-N-(6-methoxypyridin-3-yl)benzamide]
52%	Cc1ccc(NC(=O)c2cccc(S(=O)(=O)Nc3ccc(Br)cc3)c2)cc1S(=O)(=O)N1CCOCC1 [I-273, 3-(N-(4-bromophenyl)sulfamoyl)-N-(4-methyl-3-(morpholinosulfonyl)phenyl)benzamide]
63%	O=C1CN(S(=O)(=O)c2ccc(Cl)cc2)c2ccccc2N1 [I-829, 4-((4-chlorophenyl)sulfonyl)-3,4-dihydroquinoxalin-2(1H)-one]
49%	O=C(c1cccc(S(=O)(=O)Nc2ccc(F)cc2)c1)N1CCc2ccccc21 [I-576, N-(4-fluorophenyl)-3-(indoline-1-carbonyl)benzenesulfonamide]
84%	O=C(Nc1ccc(OC(F)F)cc1)c1ccccc1S(=O)(=O)Nc1cccc(C(F)(F)F)c1 [I-1, N-(4-(difluoromethoxy)phenyl)-2-(N-(3-(trifluoromethyl)phenyl)sulfamoyl)benzamide]
51%	CN(c1ccccc1)S(=O)(=O)c1ccccc1C(=O)Nc1ccc(C#N)cc1 [I-235, N-(4-cyanophenyl)-2-(N-methyl-N-phenylsulfamoyl)benzamide]
58%	CC1Cc2ccccc2N1S(=O)(=O)c1cccc(C(=O)Nc2ccccc2OC(F)(F)F)c1 (stereo not drawn) [I-476, 3-((2-methylindolin-1-yl)sulfonyl)-N-(2-(trifluoromethoxy)phenyl)benzamide]
53%	O=C(Nc1cc(Cl)ccc1N1CCOCC1)c1cccc(S(=O)(=O)N2CCc3ccccc32)c1 [I-549, N-(5-chloro-2-morpholinophenyl)-3-(indolin-1-ylsulfonyl)benzamide]
56%	O=C(Nc1ccc(Cl)cc1Cl)c1cccc(S(=O)(=O)Nc2ccc(Cl)cc2)c1 [I-519, 3-(N-(4-chlorophenyl)sulfamoyl)-N-(2,4-dichlorophenyl)benzamide]
38%	Cc1ccccc1NS(=O)(=O)c1ccc(C(=O)Nc2cccc([N+](=O)[O-])c2C)cc1 [I-404, N-(2-methyl-3-nitrophenyl)-4-(N-(o-tolyl)sulfamoyl)benzamide]
54%	O=C(Nc1cccc(F)c1)c1ccc(Cl)c(S(=O)(=O)N2CCc3ccccc32)c1 [I-537, 4-chloro-N-(3-fluorophenyl)-3-(indolin-1-ylsulfonyl)benzamide]
59%	COc1ccccc1NC(=O)c1ccc(NS(=O)(=O)c2ccc(Cl)c(C(F)(F)F)c2)cc1 [I-915, 4-((4-chloro-3-(trifluoromethyl)phenyl)sulfonamido)-N-(2-methoxyphenyl)benzamide]
56%	C=CCN(c1ccccc1Cl)S(=O)(=O)c1cc(C(=O)N2CCc3ccccc32)ccc1Cl [I-516, N-allyl-2-chloro-N-(2-chlorophenyl)-5-(indoline-1-carbonyl)benzenesulfonamide]
56%	O=C(Nc1cccc(S(=O)(=O)Nc2cccc(Cl)c2)c1)c1ccc(Br)s1 [I-726, 5-bromo-N-(3-(N-(3-chlorophenyl)sulfamoyl)phenyl)thiophene-2-carboxamide]
56%	COc1ccc2c(c1)CCCN2C(=O)c1cccc(S(=O)(=O)N2CCc3ccccc32)c1 [I-509, (3-(indolin-1-ylsulfonyl)phenyl)(6-methoxy-3,4-dihydroquinolin-1(2H)-yl)methanone]
39%	COc1ccc(NS(=O)(=O)c2cc(OC)ccc2NC(=O)c2c(OC)cccc2OC)cc1 [I-827, 2,6-dimethoxy-N-(4-methoxy-2-(N-(4-methoxyphenyl)sulfamoyl)phenyl)benzamide]
60%	O=C(NCC1(c2ccc(Br)cc2)CCOCC1)c1cccc(S(=O)(=O)Nc2ccc(Br)cc2)c1 [I-260, 3-(N-(4-bromophenyl)sulfamoyl)-N-((4-(4-bromophenyl)tetrahydro-2H-pyran-4-yl)methyl)benzamide]
59%	O=C(Nc1ccccc1)c1cccc(S(=O)(=O)Nc2ccc3c(c2)OCO3)c1 [I-264, 3-(N-(benzo[d][1,3]dioxol-5-yl)sulfamoyl)-N-phenylbenzamide]
73%	O=C(Nc1ccc(F)cc1Cl)c1ccc(S(=O)(=O)Nc2ccc(SC(F)F)cc2)cc1 [I-380, N-(2-chloro-4-fluorophenyl)-4-(N-(4-((difluoromethyl)thio)phenyl)sulfamoyl) benzamide]
58%	CN(c1ccccc1)S(=O)(=O)c1ccccc1C(=O)Nc1ccc(S(=O)(=O)N2CCCC2)cc1 [I-215, 2-(N-methyl-N-phenylsulfamoyl)-N-(4-(pyrrolidin-1-ylsulfonyl)phenyl)benzamide]
35%	Cc1ccc(NC(=O)c2cccc(NS(=O)(=O)c3ccc(C)c(F)c3)c2)nc1 [I-655, 3-((3-fluoro-4-methylphenyl)sulfonamido)-N-(5-methylpyridin-2-yl)benzamide]
69%	O=C(Nc1ccccc1Cl)c1cccc(S(=O)(=O)Nc2ccc(Cl)cc2)c1 [I-177, N-(2-chlorophenyl)-3-(N-(4-chlorophenyl)sulfamoyl)benzamide]
57%	Cc1ccc(N(C)S(=O)(=O)c2cccc(C(=O)Nc3ccc4c(c3)CCC4)c2)cc1 [I-504, N-(2,3-dihydro-1H-inden-5-yl)-3-(N-methyl-N-(p-tolyl)sulfamoyl)benzamide]
3%	COc1ccccc1NS(=O)(=O)c1cccc(NC(=O)c2ccc(=O)n(C)n2)c1 [I-774, N-(3-(N-(2-methoxyphenyl)sulfamoyl)phenyl)-1-methyl-6-oxo-1,6-dihydropyridazine-3-carboxamide]
13%	O=C(Nc1ccccc1[N+](=O)[O-])c1cc(S(=O)(=O)Nc2ccc(Br)cc2)ccc1Cl [I-44, 5-(N-(4-bromophenyl)sulfamoyl)-2-chloro-N-(2-nitrophenyl)benzamide]
57%	O=C(Nc1cccc2ncccc12)c1cccc(NS(=O)(=O)c2cccs2)c1 [I-638, N-(quinolin-5-yl)-3-(thiophene-2-sulfonamido)benzamide]

SMILES	% Inhibition of Apyrase
COc1ccc([N+](=O)[O-])cc1NS(=O)(=O)c1cccc(C(=O)Nc2ccc(F)c([N+](=O)[O-])c2)c1 [I-430, N-(4-fluoro-3-nitrophenyl)-3-(N-(2-methoxy-5-nitrophenyl)sulfamoyl)benzamide]	72%
